Measured values: patent publication US11712466B2, “Vaccine composition” (TOHOKU UNIVERSITY, priority 2017, dated 2023)
“Also recorded” adds a separate entry of the source. Ends that are not written are not given here.

How the values were obtained:
[1] = system: Lewis lung cancer cells (LLC); assay: Subcutaneous implant model, tumor growth inhibitory effect (LLC); assay type: in vivo, mouse; conditions: immunized C57BL/6J mice, cells implanted s.c. on day 29, measured 14 days after implantation
Protocol: After 2 weeks from the administration of each peptide vaccine and incomplete Freund's adjuvant in Example 1 (on day 29 after the initial peptide vaccine administration), mouse-derived tumor cells were implanted in an immunized mouse, whereby a subcutaneous implant model was prepared. Specifically, mouse lung cancer cells (Lewis lung cancer cells (LLC)) or mouse melanoma cells (B16F1) (all have C57BL/6J as a genetic background) cultured in a RPMI+10% FBS medium were collected by centrifugation, and a cell suspension (1.0×10^8 cells/mL) was prepared with a serum-free medium, and 0.1 mL (1.0×10^7 cells/animal) of the cell suspension was implanted in a right axillary subcutaneous region of a mouse using a 27G injection needle and a syringe, whereby a subcutaneous implant model of tumor cells was prepared.

mSnail = assay: Gene expression in excised tumor tissue by real-time PCR, mSnail; assay type: in vivo, mouse; conditions: tumor excised two weeks after implantation
Protocol: The mouse implanted with the tumor cells in Example 2 was sacrificed two weeks after implantation of the tumor cells, and a tumor was excised from the right axillary subcutaneous region. By using RNeasy Plus Kit (Qiagen, Inc.), extraction of the total RNA from the excised tumor and purification thereof were carried out. By using the obtained total RNA as a template, cDNA was synthesized by reverse transcription reaction. The cDNA was analyzed by performing real-time PCR using a mixed solution of the obtained cDNA and SYBR green (TAKARA BIO, Inc.).

[2] = system: RH30 rhabdomyosarcoma cells; assay: In vitro wound migration method with serum of immunized mouse (RH30); assay type: cell-based, human; conditions: 1% serum of mouse with increased anti-VASH2 titer after vaccine; 24 and 48 hours
Protocol: By using the serum derived from a mouse in which an increase in the antibody titer against the recombinant human VASH2 protein by administration of the MTG peptide vaccine was confirmed, the effect on the migration ability of various types of cancer cells was examined by an in vitro wound migration method. Mouse-derived Lewis lung cancer cells and human-derived RH30 rhabdomyosarcoma cells were added to a 6-well plate at 1.0×10^6 cells each. After 24 hours, a formed cell monolayer was wounded and linearly exfoliated. After the exfoliation, the medium was replaced with fresh 0.5% FBS+RPMI medium supplemented with 1% mouse serum. At 24 hours and 48 hours after the medium replacement, the image of the cell monolayer was captured using an IX71 inverted microscope (manufactured by Olympus Corporation), and a cell migration distance of each time zone was analyzed using ImageJ software. The analysis was carried out according to the following formula. Cell migration distance (%)={(A−B)/A}×100
A: Width of initial wound, B: Width of wound after 24 hours or 48 hours

[3] = system: mouse lung cancer cells (LLC); assay: Metastasis inhibitory effect in vivo, LLC injected through tail vein, lung metastatic lesion; conditions: 20 or 100 μg, day 21 after LLC injection
Protocol: 20 μg or 100 μg of KLH (control) and 20 μg or 100 μg of the peptide represented by SEQ ID NO: 4 conjugated with KLH (MTG peptide vaccine) were prepared with physiological saline so that the total amount was 100 μL, respectively, whereby KLH-mixed solutions were obtained. To each of the KLH-mixed solutions (100 μL), an equal amount of complete Freund's adjuvant or Alhydrogel (registered trademark) (Invitrogen) was added. The obtained mixture (200 μL) was intradermally (ID) administered to C57BL/6J male mice (n=5) aged 8 weeks, whereby initial immunization was carried out (0 day). Incidentally, in the intradermal administration, 200 μL was administered at a dose of 100 μL each to two sites. After 2 weeks from the administration (14 days), booster immunization was carried out by subcutaneously administering a mixture of each of the KLH-mixed solutions (100 μL) and an equal amount of incomplete Freund's adjuvant or Alhydrogel (registered trademark) to the mice. […] Further, at that time point, the blood was collected from each mouse, and the antibody titer of an antibody specific to the VASH2 protein was measured by ELISA. The mice were sacrificed on day 21 after the injection of LLC (49 days), and the lung metastatic lesion was analyzed (FIG. 7). […]

[4] = system: pancreatic cancer cell line (K5); assay: Metastasis inhibitory effect in vivo, K5 injected through tail vein, lung metastatic lesion; set-up: species or system mouse; conditions: 100 μg, Alhydrogel, C57BL/6J mice, day 21 after K5 injection; KLH control 2 out of 5 mice with metastasis
Protocol: 20 μg or 100 μg of KLH (control) and 20 μg or 100 μg of the MTG peptide vaccine were prepared with physiological saline so that the total amount was 100 μL, respectively, whereby KLH-mixed solutions were obtained. To each of the KLH-mixed solutions (100 μL), an equal amount of Alhydrogel (registered trademark) was added. The obtained mixture (200 μL) was intradermally (ID) administered to C57BL/6J male mice (n=5) aged 8 weeks, whereby initial immunization was carried out (0 day). Incidentally, in the intradermal administration, 200 μL was administered at a dose of 100 μL each to two sites. After 2 weeks from the administration (14 days), booster immunization was carried out by subcutaneously administering a mixture of each of the KLH-mixed solutions (100 μL) and an equal amount of Alhydrogel (registered trademark) to the mice. […] Further, at that time point, the blood was collected from each mouse, and the antibody titer of an antibody specific to the antigen peptide or the recombinant human VASH2 protein was measured by ELISA. The mice were sacrificed on day 21 after the injection of K5 (49 days), and the lung metastatic lesion was analyzed (FIG. 10). […]

“MTG peptide vaccine: MTG peptide MTGSAADTHR (SEQ ID NO: 4) conjugated with KLH as carrier by a glutaraldehyde method (also: conjugated with KLH by glutaraldehyde)” was tested, and the “tumor size (tumorigenesis), Lewis lung cancer cells” value [1] was “marked inhibition of tumorigenesis; also recorded: marked inhibition of tumor growth”, the “expression of mSnail (epithelial-mesenchymal transition marker) in tumor tissue” value (mSnail) was “dose-dependent expression inhibitory effect; also recorded: significantly inhibited depending on the dose” and the “cell migration, human-derived RH30 rhabdomyosarcoma cells” value [2] was “migration inhibitory effect”. The “metastasis of cancer cells (lung metastatic lesion), LLC” value ([3]; Alhydrogel adjuvant) was “inhibited metastasis of cancer cells”, the “metastasis of cancer cells (lung metastatic lesion), LLC” value ([3]; Freund's adjuvant) was “inhibited metastasis of cancer cells” and the “lung metastasis of the pancreatic cancer cells K5” value [4] was “not confirmed in all four individuals”.
